The text below walks through data of PMC7855981, “Rho-Kinase 1/2 Inhibition Prevents Transforming Growth Factor-β-Induced Effects on Pulmonary Remodeling and Repair” (Frontiers in Pharmacology, 2021).

The target in assay [1] is T1, ROCK1 (Homo sapiens, UniProt Q13464).
T1 construct: GST-tagged 1–535 human ROCK1
The assay is described as follows: ADP-Glo kinase assay with […] ATP. In kind it is biochemical. In general terms: ADP-Glo turns the ADP formed in a reaction into a luminescent signal.

In assay [2] the target is T2, ROCK2 (Homo sapiens, UniProt O75116).
T2 construct: GST-tagged 1–552 human ROCK2
T2 sequence (O75116 1-552): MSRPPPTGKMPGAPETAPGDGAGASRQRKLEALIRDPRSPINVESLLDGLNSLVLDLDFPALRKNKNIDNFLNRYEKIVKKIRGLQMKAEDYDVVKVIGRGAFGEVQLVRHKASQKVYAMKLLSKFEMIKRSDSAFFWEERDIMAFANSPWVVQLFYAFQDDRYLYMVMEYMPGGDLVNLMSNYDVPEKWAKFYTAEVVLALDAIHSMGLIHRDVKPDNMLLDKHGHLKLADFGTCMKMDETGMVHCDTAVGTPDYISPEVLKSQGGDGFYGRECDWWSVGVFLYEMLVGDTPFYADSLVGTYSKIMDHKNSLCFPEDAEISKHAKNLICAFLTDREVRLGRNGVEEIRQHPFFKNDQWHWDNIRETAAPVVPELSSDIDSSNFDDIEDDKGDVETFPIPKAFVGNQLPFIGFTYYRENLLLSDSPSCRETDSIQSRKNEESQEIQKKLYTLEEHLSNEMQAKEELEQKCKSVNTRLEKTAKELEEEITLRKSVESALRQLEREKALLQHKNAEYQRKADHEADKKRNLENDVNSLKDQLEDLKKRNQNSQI
Kind of assay: ADP-Glo kinase assay with […] ATP; also KINOMEscan competition at […] ([…] vs CTRL). In kind it is biochemical.

Assay [3] deals with T2, ROCK2. Kind of assay: ADP-Glo kinase assay with […] ATP; also KINOMEscan competition at […] ([…] CTRL). In kind it is biochemical.
The target of assay [4] is VRK2 (Homo sapiens, UniProt Q86Y07). The assay is described as follows: KINOMEscan competition binding, single concentration […] ([…] of control). The settings on record: read-out: % CTRL at 100 nM.
VRK2, sequence (Q86Y07 whole entry): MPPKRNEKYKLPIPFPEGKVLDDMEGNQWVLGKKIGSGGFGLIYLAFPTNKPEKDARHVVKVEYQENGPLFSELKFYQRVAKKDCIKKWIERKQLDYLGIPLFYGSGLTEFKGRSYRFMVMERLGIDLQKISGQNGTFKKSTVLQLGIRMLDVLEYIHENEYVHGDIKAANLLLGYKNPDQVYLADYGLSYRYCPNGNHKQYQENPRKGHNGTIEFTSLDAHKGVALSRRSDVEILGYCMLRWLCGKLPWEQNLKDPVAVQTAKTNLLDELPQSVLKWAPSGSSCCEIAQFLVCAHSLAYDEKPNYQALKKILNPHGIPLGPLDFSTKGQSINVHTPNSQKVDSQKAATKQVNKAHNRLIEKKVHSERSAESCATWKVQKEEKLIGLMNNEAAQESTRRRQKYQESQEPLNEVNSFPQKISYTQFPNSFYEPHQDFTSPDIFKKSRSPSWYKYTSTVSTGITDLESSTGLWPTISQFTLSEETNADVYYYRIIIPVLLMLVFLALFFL
The target in assay [5] is T1, ROCK1. The assay is described as follows: ADP-Glo kinase assay with […] ATP; also KINOMEscan competition at […] ([…] CTRL). In kind it is biochemical.

T1 sequence (Q13464 1-535): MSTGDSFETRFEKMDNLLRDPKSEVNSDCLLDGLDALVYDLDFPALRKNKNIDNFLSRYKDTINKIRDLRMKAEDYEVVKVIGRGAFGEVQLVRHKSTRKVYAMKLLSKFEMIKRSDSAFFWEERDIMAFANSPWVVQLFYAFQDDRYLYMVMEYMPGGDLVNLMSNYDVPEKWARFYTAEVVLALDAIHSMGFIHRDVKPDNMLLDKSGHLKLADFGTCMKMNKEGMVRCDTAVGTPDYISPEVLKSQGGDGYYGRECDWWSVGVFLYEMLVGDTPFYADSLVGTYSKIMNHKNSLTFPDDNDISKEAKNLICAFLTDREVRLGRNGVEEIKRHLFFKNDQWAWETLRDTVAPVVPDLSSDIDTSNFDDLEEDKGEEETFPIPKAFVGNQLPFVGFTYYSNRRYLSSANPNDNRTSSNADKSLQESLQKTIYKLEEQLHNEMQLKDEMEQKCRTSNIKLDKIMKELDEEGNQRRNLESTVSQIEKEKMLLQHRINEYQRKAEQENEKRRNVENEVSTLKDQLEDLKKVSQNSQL

`Cn1cc(C(=O)Nc2cccc(-c3nnc(Nc4ccc5[nH]ncc5c4Cl)s3)c2)cn1` [A11, N-(3-(5-((4-chloro-1H-indazol-5-yl)amino)-1,3,4-thiadiazol-2-yl)phenyl)-1-methyl-1H-pyrazole-4-carboxamide]: the values for the IC50 in assay [1] and in assay [2] were 341 ± 38 nM and 6.1 ± 1.4 nM, respectively.

With `CCCN[C@H]1CCc2nc(NC(=O)c3cccc([C@@H](C)NC(=O)c4ccc(OC)c(OC)c4)c3)sc2C1` [compound 31, 3,4-dimethoxy-N-((R)-1-(3 - (((S) - 6 - (propylamino) - 4,5,6, 7 tetrahydrobenzo [d]thiazol-2-yl)carbamoyl)phenyl)ethyl) benzamide], the results for the IC50 in assay [3] and in assay [5] were 4 ± 0.6 nM and 2.9 ± 0.5 nM, respectively. The remaining binding at 0.1 µM in assay [4] was found to be 9.3%.

A word on the IC50: it is the midpoint of a concentration-inhibition curve. A higher IC50 goes with weaker potency.
